Test system: 276233-004-R-J1-PDC spheroids with HUVEC/MSC, viability
Assay: Anticancer human tumor 276233-004-R-J1-PDC patient-derived colon adenocarcinoma cell line growth inhibition [TAK]
Conditions: for IC50: curve of first compound; for viability, T/C: stronger effect = lower value
Text: Combinatorial screen of targeted agents with TAK-243 and ipatasertib in multi-cell type tumor spheroids
A high-throughput screen of multi-cell type tumor spheroids was designed to identify active combinations of targeted small molecules and TAK-243 or ipatasertib. Complex spheroids include a stromal component modeled by human endothelial cells (HUVEC) and fibroblasts modeled by human mesenchymal stem cells (MSCs). The concentration ranges selected for each drug and investigational agent were based upon clinically achievable concentrations if the clinical Cmax of the agent was known.
Compounds. The drugs and investigational agents: TAK-243 (785004), ipatasertib (767898), everolimus (733504), selumetinib (741078), bortezomib (756655), trametinib (758246), ixazomib (758254), vemurafenib (761431), dabrafenib (764134), sapanisertib (764658), alpelisib (765974), and copanlisib (816437), were obtained from the National Cancer Institute (NCI) Developmental Therapeutics Program Chemical Repository. The FDA-approved anticancer drug set is available from the NCI Developmental Therapeutics Program. […] The stock solutions were prepared in dimethyl sulfoxide (DMSO, Sigma-Aldrich, St. Louis, MO, cat. D2650) at 800-fold the tested concentration and stored at -70 degrees C prior to their use. All drugs and investigational agents were tested over a range starting from a high concentration at or near the clinical Cmax and decreasing in half-log increments. If the clinical Cmax for an agent had not been determined, the highest concentration tested was 10 microM.
NCI60 Cell Culture. NCI60 cell lines were obtained from the NCI Developmental Therapeutics Program Tumor Repository. For each lot of cells, the Repository performed Applied Biosystems AmpFLSTR Identifiler testing with PCR amplification to confirm consistency with the published Identifier STR profile for each cell line. Cells were kept in continuous culture for no more than 20 passages. The optimal seeding densities for each of the cell lines at each time point assessed were determined prior to performing the concentration response studies. Briefly, the NCI60 human tumor lines were grown as monolayers in RPMI 1640 medium supplemented with 10% FBS and 2 mmol/L L-glutamine.
An additional 2 lines were from the NCI60 cell line panel including melanomas, MALME-3M and SK-MEL-2. Pooled donor human umbilical vein endothelial cells (HUVEC, Lonza, cat. CC-2519) and human mesenchymal stem cells (hMSC, Lonza, cat. PT-2501) were purchased from Lonza (Walkersville, MD).
PDMR cell lines were grown in complete medium (DC medium): Dulbecco's modified Eagle's medium (DMEM)/F12 supplemented with 5% fetal bovine serum (FBS), 2 mM L-glutamine, 100 U/mL penicillin and 100 µg/ml streptomycin, 0.4 µg/ml hydrocortisone, 10 ng/ml epidermal growth factor (EGF) recombinant human protein, 24 µg/mL adenine, and 0.1 mg/mL primocin. During culture from frozen stock vials, PDMR cells were cultured in the same medium containing 10 µM Y-27632 (see Table 3). The PDCs were cultured in complete DMEM/F12 media without 10 microM Y-27632 dihydrochloride for at least two passages prior to the screen. The pooled donor HUVEC and hMSC were cultured in endothelial cell growth medium 2 (PromoCell, Heidelberg, Germany, cat. C-22011) and mesenchymal stem cell growth medium 2 (PromoCell, cat. C-28009), respectively. For all experiments, HUVEC and hMSC were used at passages </=5.
For the pre-screen, cell seeding densities were determined from a titration spanning the range from 5,000 to 313 cells per well. The mct-spheroids including 60% malignant cells, 25% HUVEC and 15% MSC dispensed as a mixture into U-bottom Ultra-Low Attachment 384-well plates (Corning, NY)
High-throughput Drug Combination Screening.
Prior to their inoculation into 384-well plates, malignant cells, HUVEC, and hMSC were removed from T flasks using TrypLE express (Thermo Fisher Scientific, cat. 12605036) and harvested by centrifugation for 5 min at 233 x g. […]

[1] = second compound 0.3 µM, first compound 0.0316 µM
[2] = second compound 0.3 µM, first compound 0.1 µM
[3] = second compound 0.3 µM, first compound 0.316 µM
[4] = second compound 0.3 µM, first compound 1 µM
[5] = second compound 0.3 µM, first compound 3.16 µM
[6] = second compound 0.3 µM, first compound 10 µM
[7] = second compound 0.949 µM, first compound 0.0316 µM
[8] = second compound 0.949 µM, first compound 0.1 µM
[9] = second compound 0.949 µM, first compound 0.316 µM
[10] = second compound 0.949 µM, first compound 1 µM
[11] = second compound 0.949 µM, first compound 3.16 µM
[12] = second compound 0.949 µM, first compound 10 µM
[13] = second compound 3 µM, first compound 0.0316 µM
[14] = second compound 3 µM, first compound 0.1 µM
[15] = second compound 3 µM, first compound 0.316 µM
[16] = second compound 3 µM, first compound 1 µM
[17] = second compound 3 µM, first compound 3.16 µM
[18] = second compound 3 µM, first compound 10 µM
[19] = second compound 9.49 µM, first compound 0.0316 µM
[20] = second compound 9.49 µM, first compound 0.1 µM
[21] = second compound 9.49 µM, first compound 0.316 µM
[22] = second compound 9.49 µM, first compound 1 µM
[23] = second compound 9.49 µM, first compound 3.16 µM
[24] = second compound 9.49 µM, first compound 10 µM
[25] = second compound 30 µM, first compound 0.0316 µM
[26] = second compound 30 µM, first compound 0.1 µM
[27] = second compound 30 µM, first compound 0.316 µM
[28] = second compound 30 µM, first compound 1 µM
[29] = second compound 30 µM, first compound 3.16 µM
[30] = second compound 30 µM, first compound 10 µM
[31] = second compound 0.3 µM, first compound 0.000316 µM
[32] = second compound 0.3 µM, first compound 0.001 µM
[33] = second compound 0.3 µM, first compound 0.00316 µM
[34] = second compound 0.3 µM, first compound 0.01 µM
[35] = second compound 0.949 µM, first compound 0.000316 µM
[36] = second compound 0.949 µM, first compound 0.001 µM
[37] = second compound 0.949 µM, first compound 0.00316 µM
[38] = second compound 0.949 µM, first compound 0.01 µM
[39] = second compound 3 µM, first compound 0.000316 µM
[40] = second compound 3 µM, first compound 0.001 µM
[41] = second compound 3 µM, first compound 0.00316 µM
[42] = second compound 3 µM, first compound 0.01 µM
[43] = second compound 9.49 µM, first compound 0.000316 µM
[44] = second compound 9.49 µM, first compound 0.001 µM
[45] = second compound 9.49 µM, first compound 0.00316 µM
[46] = second compound 9.49 µM, first compound 0.01 µM
[47] = second compound 30 µM, first compound 0.000316 µM
[48] = second compound 30 µM, first compound 0.001 µM
[49] = second compound 30 µM, first compound 0.00316 µM
[50] = second compound 30 µM, first compound 0.01 µM
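Further: spheroids exposed to drugs for seven days before the viability read.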

CC(C)(C)c1nc(-c2cccc(NS(=O)(=O)c3c(F)cccc3F)c2F)c(-c2ccnc(N)n2)s1 + CC(C)NCC(C(=O)N1CCN(c2ncnc3c2C(C)CC3O)CC1)c1ccc(Cl)cc1
IC50 (second compound 0.3 µM): > 10000 nM | IC50 (second compound 0.949 µM): > 10000 nM | IC50 (second compound 3 µM): > 10000 nM | IC50 (second compound 9.49 µM): > 10000 nM | IC50 (second compound 30 µM): > 10000 nM | viability, T/C [1]: 109% | viability, T/C [2]: 92.8% | viability, T/C [3]: 110% | viability, T/C [4]: 90.7% | viability, T/C [5]: 65.1% | viability, T/C [6]: 82.6% | viability, T/C [7]: 101% | viability, T/C [8]: 96.4% | viability, T/C [9]: 86.8% | viability, T/C [10]: 84.4% | viability, T/C [11]: 73.8% | viability, T/C [12]: 71.8% | viability, T/C [13]: 80.6% | viability, T/C [14]: 78.3% | viability, T/C [15]: 91.1% | viability, T/C [16]: 61.1% | viability, T/C [17]: 63.5% | viability, T/C [18]: 65.5% | viability, T/C [19]: 73.2% | viability, T/C [20]: 78.8% | viability, T/C [21]: 68.2% | viability, T/C [22]: 64.7% | viability, T/C [23]: 83.1% | viability, T/C [24]: 57% | viability, T/C [25]: 61.9% | viability, T/C [26]: 73.8% | viability, T/C [27]: 64.6% | viability, T/C [28]: 70.1% | viability, T/C [29]: 67.5% | viability, T/C [30]: 75.3%

CC(C)CC(NC(=O)CNC(=O)c1cc(Cl)ccc1Cl)B1OC(=O)CC(CC(=O)O)(C(=O)O)O1 (stereo not given) + CC(C)NCC(C(=O)N1CCN(c2ncnc3c2C(C)CC3O)CC1)c1ccc(Cl)cc1
IC50 (second compound 0.3 µM): 53.9 nM | IC50 (second compound 0.949 µM): 52.3 nM | IC50 (second compound 3 µM): 42.1 nM | IC50 (second compound 9.49 µM): 31.7 nM | IC50 (second compound 30 µM): 17.5 nM | viability, T/C [31]: 112% | viability, T/C [32]: 103% | viability, T/C [33]: 102% | viability, T/C [34]: 106% | viability, T/C [1]: 81.2% | viability, T/C [2]: 14.1% | viability, T/C [35]: 112% | viability, T/C [36]: 95.7% | viability, T/C [37]: 101% | viability, T/C [38]: 91.3% | viability, T/C [7]: 82.1% | viability, T/C [8]: 12% | viability, T/C [39]: 90.4% | viability, T/C [40]: 89.6% | viability, T/C [41]: 84.3% | viability, T/C [42]: 79.4% | viability, T/C [13]: 64.4% | viability, T/C [14]: 10.9% | viability, T/C [43]: 74.6% | viability, T/C [44]: 84.8% | viability, T/C [45]: 65.1% | viability, T/C [46]: 71.7% | viability, T/C [19]: 49.2% | viability, T/C [20]: 13.5% | viability, T/C [47]: 68.2% | viability, T/C [48]: 84.8% | viability, T/C [49]: 60.5% | viability, T/C [50]: 63.7% | viability, T/C [25]: 38.3% | viability, T/C [26]: 17.2%

CC(C)n1nc(-c2ccc3oc(N)nc3c2)c2c(N)ncnc21 + CC(C)NCC(C(=O)N1CCN(c2ncnc3c2C(C)CC3O)CC1)c1ccc(Cl)cc1
IC50 (second compound 0.3 µM): > 100 nM | IC50 (second compound 0.949 µM): > 100 nM | IC50 (second compound 3 µM): > 100 nM | IC50 (second compound 9.49 µM): > 100 nM | IC50 (second compound 30 µM): > 100 nM | viability, T/C [31]: 112% | viability, T/C [32]: 98.7% | viability, T/C [33]: 89.5% | viability, T/C [34]: 90.6% | viability, T/C [1]: 78.2% | viability, T/C [2]: 60.8% | viability, T/C [35]: 104% | viability, T/C [36]: 84.9% | viability, T/C [37]: 83.9% | viability, T/C [38]: 68.1% | viability, T/C [7]: 65.3% | viability, T/C [8]: 57.2% | viability, T/C [39]: 84.7% | viability, T/C [40]: 81.8% | viability, T/C [41]: 72.4% | viability, T/C [42]: 63.4% | viability, T/C [13]: 69.5% | viability, T/C [14]: 58.9% | viability, T/C [43]: 74.8% | viability, T/C [44]: 77.1% | viability, T/C [45]: 74.6% | viability, T/C [46]: 70.1% | viability, T/C [19]: 66.5% | viability, T/C [20]: 60.1% | viability, T/C [47]: 61.4% | viability, T/C [48]: 64.7% | viability, T/C [49]: 59% | viability, T/C [50]: 64.5% | viability, T/C [25]: 78.5% | viability, T/C [26]: 59.7%

CCCS(=O)(=O)Nc1ccc(F)c(C(=O)c2c[nH]c3ncc(-c4ccc(Cl)cc4)cc23)c1F + CC(C)NCC(C(=O)N1CCN(c2ncnc3c2C(C)CC3O)CC1)c1ccc(Cl)cc1
IC50 (second compound 0.3 µM): > 100000 nM | IC50 (second compound 0.949 µM): > 100000 nM | IC50 (second compound 3 µM): > 100000 nM | IC50 (second compound 9.49 µM): > 100000 nM | IC50 (second compound 30 µM): > 100000 nM | viability, T/C [3]: 83.8% | viability, T/C [4]: 99.5% | viability, T/C [5]: 96.9% | viability, T/C [6]: 102% | viability, T/C (second compound 0.3 µM, first compound 31.6 µM): 95.7% | viability, T/C (second compound 0.3 µM, first compound 100 µM): 120% | viability, T/C [9]: 86.9% | viability, T/C [10]: 89.7% | viability, T/C [11]: 86.4% | viability, T/C [12]: 69.3% | viability, T/C (second compound 0.949 µM, first compound 31.6 µM): 87.2% | viability, T/C (second compound 0.949 µM, first compound 100 µM): 86.9% | viability, T/C [15]: 72.7% | viability, T/C [16]: 77.3% | viability, T/C [17]: 91.2% | viability, T/C [18]: 76.9% | viability, T/C (second compound 3 µM, first compound 31.6 µM): 68.7% | viability, T/C (second compound 3 µM, first compound 100 µM): 74.5% | viability, T/C [21]: 63.8% | viability, T/C [22]: 70% | viability, T/C [23]: 72.2% | viability, T/C [24]: 62.8% | viability, T/C (second compound 9.49 µM, first compound 31.6 µM): 92.2% | viability, T/C (second compound 9.49 µM, first compound 100 µM): 68.8% | viability, T/C [27]: 68.4% | viability, T/C [28]: 61.8% | viability, T/C [29]: 79% | viability, T/C [30]: 72.1% | viability, T/C (second compound 30 µM, first compound 31.6 µM): 59.5% | viability, T/C (second compound 30 µM, first compound 100 µM): 63.5%

Reference: PubChem BioAssay AID2060359 (Molecular Pharmacology Branch, DTP, NCI, 2025)
